US11518742B2 (priority 2020, dated 2022)
Like-named read-outs stand apart in the source and are kept apart here.

What was measured:
[1] = Toxicokinetics, 14-day intranasal study in dogs (Study 62959); format: in vivo; settings: dog, plasma, inhaled or intranasal; for AUC(0-inf): read-out: AUCINF_obs; for half-life: read-out: t1/2 (converted); for AUC(0-t): read-out: AUC0-Tlast
Protocol: Assessments of mortality, clinical signs, olfactory reflex, body weights, food consumption, ophthalmology, and electrocardiograms were performed. In addition, clinical pathology assessments (hematology, coagulation, clinical chemistry and urinalysis) were evaluated once pretreatment and at termination. Blood samples were collected from the jugular vein of all animals on Days 1 and 14, at up to 8 time points relative to treatment, for analysis of test item concentration in plasma and the subsequent calculation of toxicokinetic parameters. Following dosing, the Main animals were euthanized and subjected to a complete necropsy examination on Day 15. […] All Main and Recovery study animals underwent complete necropsy examinations, selected tissues/organs were retained, and microscopic evaluations of a standard set of tissues were performed.
For toxicokinetics, a series of 8 blood samples were collected from the jugular vein from all treated animals on each of Days 1 and 14 of the treatment period at 2, 5, 10, 15, 30, and 60 minutes as well as 3 and 8 hours after treatment.

[2] = Summary of clinical observations in applicant-sponsored rat studies; settings: Sprague Dawley, in vivo, other: intranasal instillation, HED 48 mg, read-out: NOAEL determined in the 14-day toxicology studies
From the text: Based on preliminary data from another ongoing study in dogs, it has been observed that the site of blood sampling in dogs may impact the measured plasma exposure. Samples from the jugular vein may result in higher apparent exposure levels than samples from the cephalic vein, which might be due to the local transmucosal route of administration (also reported in the scientific literature (Illum, 2003; Sohlberg, 2013)). Therefore, dose escalation criteria for the Phase 1 Single Ascending Dose study are based on assessment of clinical criteria, safety factors and exposure. A maximum dose of 14 mg has been designated.

[3] = female, Beagle, 0.8 mg/kg/day, Day 1, Female
[4] = female, Beagle, 0.8 mg/kg/day, Day 14, Female
[5] = female, beagle, 0.4 mg/kg/day, Day 1, Female
[6] = female, beagle, 0.4 mg/kg/day, Day 14, Female
[7] = female, beagle, […], 2.5 & […], Day 1, Female
[8] = male, Beagle, 0.8 mg/kg/day, Day 1, Male
[9] = male, Beagle, 0.8 mg/kg/day, Day 14, Male
[10] = male, beagle, 0.4 mg/kg/day, Day 1, Male
[11] = male, beagle, 0.4 mg/kg/day, Day 14, Male
[12] = male, beagle, […], 2.5 & […], Day 14, Male

COc1ccc2[nH]cc(CCN(C)C)c2c1 [BPL-5MEO, 5-methoxy-N,N-dimethyltryptamine]
AUC ([1]; Beagle, dogs, 1.5 mg/kg/day, combined for both sexes, read-out: AUCINT_obs at the NOAEL): 220 ng·h/mL | Cmax [1, 3]: 328 ng/mL | AUC(0-inf) [1, 3]: 265 ng·h/mL | half-life [1, 3]: 43.8 min | Cmax [1, 4]: 244 ng/mL | AUC(0-t) [1, 4]: 248 ng·h/mL | half-life [1, 4]: 95.4 min | Cmax [1, 5]: 242 ng/mL | AUC(0-t) [1, 5]: 104 ng·h/mL | AUC(0-inf) [1, 5]: 106 ng·h/mL | half-life [1, 5]: 18.7 min | Cmax [1, 6]: 196 ng/mL | AUC(0-t) [1, 6]: 86.4 ng·h/mL | AUC(0-inf) [1, 6]: 95.9 ng·h/mL | half-life [1, 6]: 42.4 min | Tmax [1, 7]: 6.66 min | half-life [1, 7]: 50.9 min | Cmax [1, 8]: 300 ng/mL | Tmax [1, 8]: 6.66 min | AUC(0-t) [1, 8]: 152 ng·h/mL | AUC(0-inf) [1, 8]: 160 ng·h/mL | half-life [1, 8]: 35.7 min | Cmax [1, 9]: 411 ng/mL | Tmax [1, 9]: 6.66 min | AUC(0-t) [1, 9]: 298 ng·h/mL | AUC(0-inf) [1, 9]: 322 ng·h/mL | half-life [1, 9]: 79.2 min | Cmax [1, 10]: 343 ng/mL | AUC(0-t) [1, 10]: 77.9 ng·h/mL | AUC(0-inf) [1, 10]: 80.9 ng·h/mL | half-life [1, 10]: 34.3 min | Cmax [1, 11]: 285 ng/mL | Tmax [1, 11]: 6.66 min | AUC(0-t) [1, 11]: 70.6 ng·h/mL | AUC(0-inf) [1, 11]: 77.7 ng·h/mL | half-life [1, 11]: 25.7 min | Tmax [1, 12]: 13.4 min | half-life [1, 12]: 49 min | NOAEL at 14 days [2]: 5 mg/kg
